The values that follow come from PubChem BioAssay AID248 (DTP/NCI, 2004).

The assay concerns L1210 leukemia ip in BDF1 mice, survival T/C. Kind of assay: NCI In Vivo Anticancer Drug Screen. Data for tumor model L1210 Leukemia (intraperitoneal) in B6D2F1 (BDF1) mice. The conditions noted are these: higher = longer survival. An outline of the steps: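 Transplanted-tumor mice were given test agent; controls received vehicle only. Survival readings from the two groups were divided (treated over control).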

Setting [1] is: endpoint: mean survival time, dose: 100.0 mg/kg/injection, schedule: Q01DX009 (ip), vehicle: saline.
[2] abbreviates: endpoint: mean survival time, dose: 200.0 mg/kg/injection, schedule: Q01DX009 (ip), vehicle: saline.
Where [3] appears, read: endpoint: mean survival time, dose: 100.0 mg/kg/injection, schedule: Q01DX001 (ip), vehicle: saline.
Setting [4] is: endpoint: mean survival time, dose: 200.0 mg/kg/injection, schedule: Q01DX001 (ip), vehicle: saline.
Where [5] appears, read: endpoint: mean survival time, dose: 400.0 mg/kg/injection, schedule: Q01DX001 (ip), vehicle: saline.
Setting [6] is: endpoint: mean survival time, dose: 100.0 mg/kg/injection, schedule: Q01DX001 (ip), vehicle: carboxymethylcellulose (CMC).
The mark [7] stands for this setting: endpoint: mean survival time, dose: 400.0 mg/kg/injection, schedule: Q01DX001 (ip), vehicle: carboxymethylcellulose (CMC).
Setting [8] is: endpoint: mean survival time, dose: 100.0 mg/kg/injection, schedule: Q04DX003 (ip), vehicle: Klucel (hydroxypropylcellulose) (HPC).
Setting [9] is: endpoint: mean survival time, dose: 200.0 mg/kg/injection, schedule: Q04DX003 (ip), vehicle: Klucel (hydroxypropylcellulose) (HPC).
Setting [10] is: endpoint: mean survival time, dose: 400.0 mg/kg/injection, schedule: Q04DX003 (ip), vehicle: Klucel (hydroxypropylcellulose) (HPC).

Molecules are shown by their SMILES. Where “and” joins values, the source holds several entries; their conditions need not be identical. Equal values may be shown once. Toxic doses and inconclusive results are not listed.

Consider `N=c1ccn2c(n1)OC1C(OP(=O)(O)O)C(CO)OC12` (configuration not stated), for which the T/C (endpoint: mean survival time, dose: 5.0 mg/kg/injection, schedule: Q01DX009 (ip), vehicle: saline) is 115 % of control; the T/C (endpoint: mean survival time, dose: 25.0 mg/kg/injection, schedule: Q01DX009 (oral), vehicle: saline) was 172 % of control; the T/C (endpoint: mean survival time, dose: 40.0 mg/kg/injection, schedule: Q01DX009 (ip), vehicle: saline) is 152 % of control; the T/C (endpoint: mean survival time, dose: 50.0 mg/kg/injection, schedule: Q01DX009 (oral), vehicle: saline) was 167 % of control; the T/C (endpoint: mean survival time, dose: 80.0 mg/kg/injection, schedule: Q01DX009 (ip), vehicle: saline) is 175 % of control; the T/C (endpoint: mean survival time, dose: 100.0 mg/kg/injection, schedule: Q01DX005 (ip), vehicle: saline) was 152 % of control and 160 % of control. Also, the T/C is, setting by setting: under setting [1], 184 % of control and 185 % of control; (endpoint: mean survival time, dose: 100.0 mg/kg/injection, schedule: Q01DX009 (oral), vehicle: saline) 190 % of control; (endpoint: mean survival time, dose: 160.0 mg/kg/injection, schedule: Q01DX009 (ip), vehicle: saline) 164 % of control; (endpoint: mean survival time, dose: 200.0 mg/kg/injection, schedule: Q01DX005 (ip), vehicle: saline) 168 % of control and 178 % of control; under setting [2], 163 % of control and 195 % of control; (endpoint: mean survival time, dose: 200.0 mg/kg/injection, schedule: Q01DX009 (oral), vehicle: saline) 201 % of control. Further, the T/C was 192 % of control and 212 % of control (endpoint: mean survival time, dose: 400.0 mg/kg/injection, schedule: Q01DX009 (ip), vehicle: saline); 245 % of control (endpoint: mean survival time, dose: 400.0 mg/kg/injection, schedule: Q01DX009 (oral), vehicle: saline); 260 % of control (endpoint: mean survival time, dose: 800.0 mg/kg/injection, schedule: Q01DX009 (oral), vehicle: saline); 109 % of control (endpoint: median survival time, dose: 12.5 mg/kg/injection, schedule: Q01DX009 (oral), vehicle: saline); 111 % of control (endpoint: median survival time, dose: 12.5 mg/kg/injection, schedule: Q03HX008 (oral), vehicle: water); 109 % of control (endpoint: median survival time, dose: 25.0 mg/kg/injection, schedule: Q01DX009 (oral), vehicle: saline). The T/C (endpoint: median survival time, dose: 25.0 mg/kg/injection, schedule: Q03HX008 (oral), vehicle: water) was 111 % of control; the T/C (endpoint: median survival time, dose: 25.0 mg/kg/injection, schedule: Q03HX024 (oral), vehicle: water) was 172 % of control; the T/C (endpoint: median survival time, dose: 50.0 mg/kg/injection, schedule: Q01DX009 (oral), vehicle: saline) was 109 % of control; the T/C (endpoint: median survival time, dose: 50.0 mg/kg/injection, schedule: Q01DX009 (oral), vehicle: water) is 150 % of control; the T/C (endpoint: median survival time, dose: 50.0 mg/kg/injection, schedule: Q03HX024 (oral), vehicle: water) is 188 % of control; the T/C (endpoint: median survival time, dose: 100.0 mg/kg/injection, schedule: Q01DX009 (oral), vehicle: water) is 166 % of control. Besides, the T/C was 194 % of control (endpoint: median survival time, dose: 100.0 mg/kg/injection, schedule: Q03HX024 (oral), vehicle: water); 100 % of control (endpoint: median survival time, dose: 200.0 mg/kg/injection, schedule: Q01DX001 (oral), vehicle: saline); 116 % of control (endpoint: median survival time, dose: 200.0 mg/kg/injection, schedule: Q01DX001 (oral), vehicle: water); 188 % of control (endpoint: median survival time, dose: 200.0 mg/kg/injection, schedule: Q01DX009 (oral), vehicle: water); 161 % of control (endpoint: median survival time, dose: 200.0 mg/kg/injection, schedule: Q03HX008 (oral), vehicle: water); 200 % of control (endpoint: median survival time, dose: 200.0 mg/kg/injection, schedule: Q03HX024 (oral), vehicle: water). Further, the T/C (endpoint: median survival time, dose: 400.0 mg/kg/injection, schedule: Q01DX001 (oral), vehicle: saline) was 90 % of control; the T/C (endpoint: median survival time, dose: 400.0 mg/kg/injection, schedule: Q01DX001 (oral), vehicle: water) was 122 % of control; the T/C (endpoint: median survival time, dose: 400.0 mg/kg/injection, schedule: Q01DX009 (oral), vehicle: saline) was 177 % of control; the T/C (endpoint: median survival time, dose: 400.0 mg/kg/injection, schedule: Q01DX009 (oral), vehicle: water) is 211 % of control; the T/C (endpoint: median survival time, dose: 400.0 mg/kg/injection, schedule: Q03HX008 (oral), vehicle: water) was 111 % of control; the T/C (endpoint: median survival time, dose: 400.0 mg/kg/injection, schedule: Q03HX024 (oral), vehicle: water) is 94 % of control. The T/C by setting is: (endpoint: median survival time, dose: 400.0 mg/kg/injection, schedule: Q04DX003 (oral), vehicle: water) 155 % of control; (endpoint: median survival time, dose: 800.0 mg/kg/injection, schedule: Q01DX009 (oral), vehicle: saline) 200 % of control; (endpoint: median survival time, dose: 800.0 mg/kg/injection, schedule: Q04DX003 (oral), vehicle: water) 177 % of control; (endpoint: median survival time, dose: 1600.0 mg/kg/injection, schedule: Q01DX001 (oral), vehicle: saline) 154 % of control; (endpoint: median survival time, dose: 1600.0 mg/kg/injection, schedule: Q04DX003 (oral), vehicle: water) 188 % of control; (endpoint: median survival time, dose: 3200.0 mg/kg/injection, schedule: Q01DX001 (oral), vehicle: saline) 168 % of control. In addition, the T/C (endpoint: median survival time, dose: 3200.0 mg/kg/injection, schedule: Q04DX003 (oral), vehicle: water) is 166 % of control.

For the compound `C=Cn1nnnc1N`, the T/C reads like this: (endpoint: mean survival time, dose: 100.0 mg/kg/injection, schedule: Q01DX001 (ip), vehicle: saline with Tween-80) 100 % of control; (endpoint: mean survival time, dose: 200.0 mg/kg/injection, schedule: Q01DX001 (ip), vehicle: saline with Tween-80) 93 % of control; (endpoint: mean survival time, dose: 400.0 mg/kg/injection, schedule: Q01DX001 (ip), vehicle: saline with Tween-80) 98 % of control.

In the case of `Nc1ccc(CCCCc2ccccc2)c(Cl)c1`, the T/C is 90 % of control (endpoint: mean survival time, dose: 75.0 mg/kg/injection, schedule: Q01DX001 (ip), vehicle: saline) and 96 % of control (endpoint: mean survival time, dose: 150.0 mg/kg/injection, schedule: Q01DX001 (ip), vehicle: saline).

Take `Oc1c(CN2CCOCC2)cc(N=Nc2ccccc2)c(O)c1CN1CCOCC1`: the T/C under setting [3] is 88 % of control, the T/C under setting [4] was 104 % of control and the T/C under setting [5] was 88 % of control.

Consider `OCC1OC(Oc2cc(O)cc3[o+]c(-c4cc(O)c(O)c(O)c4)c(OC4(CO)OC(CO)C(O)C4O)cc23)C(O)C(O)C1O` (configuration not stated), for which the T/C was 95 % of control under setting [6]; 98 % of control (endpoint: mean survival time, dose: 200.0 mg/kg/injection, schedule: Q01DX001 (ip), vehicle: carboxymethylcellulose (CMC)); 98 % of control under setting [7].

Consider `Nc1nc(-c2ccccc2)c(CCCOc2ccc([N+](=O)[O-])cc2)c(=O)[nH]1`, for which the T/C runs as follows: (endpoint: mean survival time, dose: 50.0 mg/kg/injection, schedule: Q01DX001 (ip), vehicle: carboxymethylcellulose (CMC)) 88 % of control; under setting [6], 91 % of control; under setting [7], 88 % of control.

As to `O=C(Nc1ccc(Br)cc1)Nc1cc([N+](=O)[O-])ccc1F`, the T/C is, setting by setting: under setting [8], 89 % of control; under setting [9], 91 % of control; under setting [10], 102 % of control.

In the case of `O=C(O)c1ccc([N+](=O)[O-])cc1Sc1ccsc1`, the T/C is, setting by setting: under setting [3], 98 % of control; under setting [4], 98 % of control; under setting [5], 98 % of control.

On to `Cc1ccc(N2C(N)=NC(N)=NC2(C)C)cc1`, for which the T/C was 100 % of control (endpoint: mean survival time, dose: 12.5 mg/kg/injection, schedule: Q01DX001 (ip), vehicle: saline) and 100 % of control (endpoint: mean survival time, dose: 25.0 mg/kg/injection, schedule: Q01DX001 (ip), vehicle: saline).

On to `Cc1cc(C)n(C(N)=O)n1`, for which the T/C is 109 % of control (endpoint: mean survival time, dose: 100.0 mg/kg/injection, schedule: Q01DX009 (ip), vehicle: Klucel (hydroxypropylcellulose) (HPC)); 105 % of control and 104 % of control under setting [8]; 104 % of control (endpoint: mean survival time, dose: 200.0 mg/kg/injection, schedule: Q01DX009 (ip), vehicle: Klucel (hydroxypropylcellulose) (HPC)); 97 % of control and 102 % of control under setting [9]; 110 % of control (endpoint: mean survival time, dose: 400.0 mg/kg/injection, schedule: Q01DX009 (ip), vehicle: Klucel (hydroxypropylcellulose) (HPC)); 101 % of control and 104 % of control under setting [10].

As for `CCOC(CN)C(Cl)(Cl)Cl` (configuration not stated), the T/C is 98 % of control (endpoint: mean survival time, dose: 50.0 mg/kg/injection, schedule: Q01DX009 (ip), vehicle: saline); 98 % of control and 104 % of control under setting [1]; 101 % of control and 116 % of control under setting [2].

For the compound `OC(c1ccccc1)(c1ccccc1)C1CCc2cc3ccccc3nc21` (configuration not stated), the T/C is 95 % of control (endpoint: mean survival time, dose: 50.0 mg/kg/injection, schedule: Q01DX009 (ip), vehicle: saline with Tween-80); 98 % of control (endpoint: mean survival time, dose: 100.0 mg/kg/injection, schedule: Q01DX009 (ip), vehicle: saline with Tween-80); 95 % of control (endpoint: mean survival time, dose: 200.0 mg/kg/injection, schedule: Q01DX009 (ip), vehicle: saline with Tween-80).
